Experimental data published in paper PMC12469269, “Investigating SMR Peptide Interactions with Breast Cancer-Associated Proteins” (International Journal of Molecular Sciences, 2025).

How the values were obtained:
Jurkat T cells = assay: exNef secretion, Mortalin scanning peptides (Figure 5A), Jurkat T cells; format: cell-based; settings: for Jurkat GFP (exNef secretion): 50 ng / 200 μL peptide, 250 ng Nef-GFP plasmid, GFP fluorescence in media, SMRmut = 100, mean of three independent experiments
Description: To determine whether Mortalin-derived peptides can inhibit the secretion of extracellular Nef (exNef), Jurkat T cells were co-transfected with wild-type Nef-GFP and various scanning peptides derived from the substrate-binding domain of Mortalin (#56–#67). SMRwt and SMRmut peptides were included as positive and negative controls, respectively. After 48 h of incubation, GFP fluorescence in the culture media was measured as a proxy for exNef secretion.
(§1) Figure 5 Effects of Mortalin-derived peptides on inhibition of exNef and tumor exosome secretion. (A) Jurkat T cells were co-transfected with 250 ng of wild-type Nef-GFP plasmid and 50 ng of Mortalin-derived scanning peptides (#56–#67), including SMRwt and SMRmut as positive and negative controls. After 48 h, GFP fluorescence in culture media was measured to assess exNef secretion. Data represent mean ± SD from three independent experiments. Statistical significance was determined using a two-sample t-test assuming equal variances. (B) MDA-MB-231 cells were transfected with 50 ng of Mortalin-derived scanning peptides (#56–#67), including SMRwt and SMRmut controls. Cells were labeled with N-Rh-PE and incubated for 48 h. N-Rh-PE fluorescence in culture media was measured to assess exosome secretion. Data represent mean ± SD from three independent experiments. Statistical significance was determined using a two-sample t-test assuming equal variances. TEXT PRINTED IN THE PICTURE: (A) #56: Jurkat GFP (%): 117.84 (50 ng / 200 μL) | (A) #57: Jurkat GFP (%): 96.69 (50 ng / 200 μL) | (A) #58: Jurkat GFP (%): 91.89 (50 ng / 200 μL) | (A) #59: Jurkat GFP (%): 95.49 (50 ng / 200 μL) | (A) #60: Jurkat GFP (%): 98.25 (50 ng / 200 μL) | (A) #61: Jurkat GFP (%): 0.65 (50 ng / 200 μL) | (A) #62: Jurkat GFP (%): 0.51 (50 ng / 200 μL) | (A) #63: Jurkat GFP (%): 98.02 (50 ng / 200 μL) | (A) #64: Jurkat GFP (%): 95.37 (50 ng / 200 μL) | (A) #65: Jurkat GFP (%): 96.34 (50 ng / 200 μL) | (A) #66: Jurkat GFP (%): 92.28 (50 ng / 200 μL) | (A) #67: Jurkat GFP (%): 99.56 (50 ng / 200 μL) | (A) SMRwt: Jurkat GFP (%): 0.51 (50 ng / 200 μL) | (A) SMRmut: Jurkat GFP (%): 100 (50 ng / 200 μL) | (B) #56: MDA-MB-231 N-Rh-PE (%): 66.31 (50 ng / 200 μL) | (B) #57: MDA-MB-231 N-Rh-PE (%): 79.73 (50 ng / 200 μL) | (B) #58: MDA-MB-231 N-Rh-PE (%): 68.11 (50 ng / 200 μL) | (B) #59: MDA-MB-231 N-Rh-PE (%): 67.81 (50 ng / 200 μL) | (B) #60: MDA-MB-231 N-Rh-PE (%): 72.32 (50 ng / 200 μL) | (B) #61: MDA-MB-231 N-Rh-PE (%): 7.53 (50 ng / 200 μL) | (B) #62: MDA-MB-231 N-Rh-PE (%): 5.36 (50 ng / 200 μL) | (B) #63: MDA-MB-231 N-Rh-PE (%): 75.39 (50 ng / 200 μL) | (B) #64: MDA-MB-231 N-Rh-PE (%): 73.49 (50 ng / 200 μL) | (B) #65: MDA-MB-231 N-Rh-PE (%): 81.65 (50 ng / 200 μL) | (B) #66: MDA-MB-231 N-Rh-PE (%): 81.79 (50 ng / 200 μL) | (B) #67: MDA-MB-231 N-Rh-PE (%): 89.82 (50 ng / 200 μL) | (B) SMRwt: MDA-MB-231 N-Rh-PE (%): 6.11 (50 ng / 200 μL) | (B) SMRmut: MDA-MB-231 N-Rh-PE (%): 100 (50 ng / 200 μL)
To identify peptide sequences within Mortalin that modulate extracellular vesicle (EV) secretion, a panel of scanning peptides was synthesized and tested in Jurkat T cells. The peptides, listed in Table 1, were custom-synthesized with an average purity of 75% and used in transfection assays to evaluate their impact on EV release. Jurkat T cells (3 × 10^5) were co-transfected with 50 ng of individual Mortalin peptides […] 250 ng of wild-type Nef-GFP plasmid using Chariot™ transfection reagent. Transfection efficiency was confirmed by fluorescence microscopy after 48 h. EV secretion was assessed by measuring GFP fluorescence in the culture media, and statistical analysis was performed using unpaired two-factor t-tests (p < 0.05). Panel of Mortalin scanning peptides developed and tested for their effect EV secretion and Table S2. Mortalin Scanning Peptides Used in Transfection Assays, see the Supplementary Information. […]

MDA-MB-231 cells = assay: Tumor exosome secretion, Mortalin scanning peptides (Figure 5B), MDA-MB-231; format: cell-based, human; settings: 48 h; for MDA-MB-231 N-Rh-PE (exosome secretion): 50 ng / 200 μL peptide, transfected, N-Rh-PE fluorescence in media, SMRmut = 100, mean of three independent experiments
Description: as §1
To assess the effect of Mortalin-derived peptides on tumor exosome secretion, MDA-MB-231 breast cancer cells were transfected with the same panel of scanning peptides and labeled with N-Rh-PE to track exosome release. Following incubation, N-Rh-PE fluorescence in the culture media was measured as a proxy for extracellular exosome levels. SMRwt and SMRmut peptides were again used as controls. […] Statistical analysis confirmed significant differences: SMRmut vs. #61 (p < 7.20 × 10^−7), SMRmut vs. #62 (p < 5.70 × 10^−7), and SMRmut vs. SMRwt (p < 5.96 × 10^−7).

| Substance | Jurkat GFP (exNef secretion) (Jurkat T cells; 48 h) | cluster formation / potential peptide aggregation (Jurkat T cells; Jurkat exNef experiment) | p, SMRmut vs. peptide, exNef secretion (Jurkat T cells; two-sample t-test assuming equal variances, 50 ng peptide, 48 h) | MDA-MB-231 N-Rh-PE (exosome secretion) (MDA-MB-231 cells) | p, SMRmut vs. peptide, exosome secretion (MDA-MB-231 cells; two-sample t-test assuming equal variances, 50 ng peptide) |
| --- | --- | --- | --- | --- | --- |
| DQLPADECNKLKEEISKMRE [#61, Mortalin scanning peptide 61] | 0.65% | formed small clusters | < 1.47 × 10^−13 | 7.53% | < 7.20 × 10^−7 |
| ^66Ala-Gly-Phe-Pro-Val^70 [SMRmut, 5-mer negative control, Val66 changed to Ala] | 100% |  |  | 100% |  |
